According to the supplement of paper PMC8967900:

Columns and labels:
Assay in all cases: selective drug sensitivity score (sDSS, relative to normal bone marrow) (sDSS (score)); higher = more potent and effective on the cell line relative to normal bone marrow cells
Conditions in all cases: 72 h
NALM-6 = tested on: NALM-6
KASUMI-2 = tested on: KASUMI-2
PEER = tested on: PEER
COG-LL-317 = tested on: COG-LL-317
MOLT-14 = tested on: MOLT-14
COG-LL-319h = tested on: COG-LL-319h
ALL-PO = tested on: ALL-PO
KASUMI-9 = tested on: KASUMI-9
PF-382 = tested on: PF-382
MHH-CALL-4 = tested on: MHH-CALL-4
P12-ICHIKAWA = tested on: P12-ICHIKAWA
SUP-B15 = tested on: SUP-B15
HAL-01 = tested on: HAL-01
COG-LL-402h = tested on: COG-LL-402h
REH = tested on: REH
MOLT-4 = tested on: MOLT-4
COG-LL-332h = tested on: COG-LL-332h
NALM-16 = tested on: NALM-16
TMD5 = tested on: TMD5
TANOUE = tested on: TANOUE
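Also: ALL cell lines in 384-well plates, five doses spanning 10,000-fold, each plate scaled between vehicle and 100 µmol/L benzalkonium chloride controls, sDSS an adapted area-under-curve metric.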

Structure (SMILES) | selective drug sensitivity score (NALM-6) | selective drug sensitivity score (KASUMI-2) | selective drug sensitivity score (PEER) | selective drug sensitivity score (COG-LL-317) | selective drug sensitivity score (MOLT-14) | selective drug sensitivity score (COG-LL-319h) | selective drug sensitivity score (ALL-PO) | selective drug sensitivity score (KASUMI-9) | selective drug sensitivity score (PF-382) | selective drug sensitivity score (MHH-CALL-4) | selective drug sensitivity score (P12-ICHIKAWA) | selective drug sensitivity score (SUP-B15) | selective drug sensitivity score (HAL-01) | selective drug sensitivity score (COG-LL-402h) | selective drug sensitivity score (REH) | selective drug sensitivity score (MOLT-4) | selective drug sensitivity score (COG-LL-332h) | selective drug sensitivity score (NALM-16) | selective drug sensitivity score (TMD5) | selective drug sensitivity score (TANOUE)
C=C1C[C@@H]2[C@H](CC[C@]3(C)C(=O)CC[C@@H]23)[C@@]2(C)C=CC(=O)C=C12 [Exemestane] (top concentration 10000 nM) | 1.5 | 2.3 | -1.5 | 0 | 1 | 10 | -1.9 | -0.8 | -0.4 | -1.9 | -1.9 | 1.1 | 3.8 | 2.2 | -1.9 | -1.9 | 2.4 | -1.9 | -0.1 | -0.7
COc1cc2c(Oc3ccc(NC(=O)C4(C(=O)Nc5ccc(F)cc5)CC4)cc3F)ccnc2cc1OCCCN1CCOCC1 [Foretinib] (top concentration 1000 nM) | 0.74 | -2.96 | 5.04 | 0.44 | 1.94 | 3.44 | 10.8 | -0.06 | 0.34 | 1.64 | 1.34 | 8.74 | 3.34 | 1.64 | 0.24 | 0.64 | 4.74 | 1.04 | 2.64 | -4.46
COc1cc(Nc2ncc(F)c(Nc3ccc4c(n3)N(COP(=O)(O)O)C(=O)C(C)(C)O4)n2)cc(OC)c1OC [Fostamatinib] (top concentration 2500 nM) | 2.96 | -2.84 | 0.66 | -2.84 | -0.34 | 15.3 | 8.06 | 1.76 | -1.14 | -2.74 | -2.84 | 0.96 | 0.76 | 3.46 | -1.84 | -2.04 | -0.44 | -1.44 | -2.84 | -1.94
CC1(C)OCCn2c1nc1c(N3CCOCC3)nc(-c3cnc(N)nc3)nc12 [GDC-0084] (top concentration 10000 nM) | 7 | 6 | 2 | 3.1 | 1.3 | 3 | 11.8 | 9.5 | 5.6 | 10.7 | 4.1 | 5.1 | 11 | 7.5 | 8.8 | 6.9 | 3.7 | 2.5 | 6.6 | -4.9
CC(C)c1cc(-c2n[nH]c(=O)n2-c2ccc3c(ccn3C)c2)c(O)cc1O [Ganetespib] (top concentration 1000 nM) | 2.34 | 6.04 | -1.86 | 8.64 | 1.74 | 1.14 | 3.84 | 0.14 | 1.64 | -0.56 | -0.96 | 1.74 | 0.74 | 4.54 | 0.54 | 3.14 | 6.64 | -2.76 | -5.36 | -8.36
CCc1nc(C(N)=O)c(Nc2ccc(N3CCC(N4CCN(C)CC4)CC3)c(OC)c2)nc1NC1CCOCC1 [Gilteritinib] (top concentration 1000 nM) | -2.52 | -2.52 | -2.22 | -2.52 | -2.52 | 13.6 | 2.28 | 2.88 | -2.52 | -2.52 | -2.52 | -2.42 | -1.82 | 1.58 | -2.52 | -2.52 | -2.52 | -2.52 | -2.52 | -2.52
CCN(CC)Cc1ccc2cc(COC(=O)Nc3ccc(C(=O)NO)cc3)ccc2c1 [Givinostat] (top concentration 1000 nM) | 1.2 | 10.6 | 6.1 | 4.1 | 6.8 | 10.1 | 3.9 | 7.6 | 2.9 | 3.4 | 3.1 | 8.1 | -2.4 | 12.9 | 0.2 | 2.1 | -0.3 | -1 | -0.1 | -4.5
COCCNCc1ccc(-c2cc3nccc(Oc4ccc(NC(=S)NC(=O)Cc5ccc(F)cc5)cc4F)c3s2)nc1 [Glesatinib] (top concentration 2500 nM) | -1.96 | 4.74 | 4.54 | 0.64 | 0.54 | 3.74 | 9.04 | -0.36 | -0.56 | 0.14 | -1.66 | 7.24 | 2.44 | -1.76 | 4.44 | -0.96 | 4.54 | 0.34 | 2.74 | -1.96
C=CC(=O)N1CCC[C@@H](n2nc(-c3ccc(Oc4ccccc4)cc3)c3c(N)ncnc32)C1 [Ibrutinib] (top concentration 1000 nM) | 2.4 | 0 | 0.6 | 0 | 2.6 | 5.2 | 1.8 | 1.3 | 0 | 0 | 0 | 10 | 1.9 | 9.1 | 0 | 1.4 | 2.4 | 0 | 0.1 | 0
